Assay [1] has as its target subtilisin. As to conditions: inhibitor of subtilisin, read-out: inhibition constant (KI), cited from earlier work.
The test system of assay [2] is subtilisin. The experiment in a line: Example 1: incubation of subtilisin with or without PBA at pH 7.5 and 37 degrees, activity measured after 1:500 dilution (succinyl-L-Ala-L-Ala-L-Pro-L-Phe-p-nitroanilide hydrolysis, 410 nm). As to conditions: pH 7.5, 37 degrees celsius, even in the presence of 10 mm EDTA. It counts as biochemical. The method, then:
Enzyme activity was measured after a 1:500 dilution by following the hydrolysis of the substrate succinyl-L-Ala-L-Ala-L-Pro-L-Phe-P-nitroanilide. The reaction was monitored by following the release of p-nitroaniline spectrophotometrically at 410 nm. One unit of activity is defined as the amount of enzyme that produces A410/min of 1.0 at 25'C. in 0.1M Tris pH 8.6, […] substrate.

Read-outs that look alike come from different tables or passages of the source.

As a reminder, the Ki is a measure of affinity in units of concentration, obtained from inhibition or displacement. Regarding `CC(=O)N[C@@H](CC(C)C)C(=O)N[C@@H](CC(C)C)C(=O)N[C@H](C=O)CCCNC(=N)N` [leupeptin], the results for the inhibition constant (Ki) on subtilisin [1] (listed as Leupeptin) and at subtilisin [1] were 230 µM and 160 µM, respectively.

On to `OB(O)c1ccccc1` [phenylboronic acid], for which the figures for the Ki on subtilisin [1] (listed as Phenyl boronic acid) and at subtilisin [1] were 160 µM and 230 µM, respectively. Also, the “stabilization of subtilisin (in words)” value in the assay on subtilisin [2] is on record as “very effective agent for stabilization of subtilisin”.

Turning to `CCCCB(O)O` [butane boronic acid], on subtilisin [1], the inhibitory constant (Ki) was 7200 µM.

(Values after patent US5039446A, “Liquid detergent with stabilized enzyme” (Genencor International, Inc., priority 1990, dated 1991).)
